Experimental data reported in patent US9120786B2, “Triazine carboxamides as sodium channel blockers” (priority 2013, dated 2015).

Molecular target: human Nav1.7 (Homo sapiens (Human), UniProt Q15858)
Test: FLIPR sodium dye assay (CoroNa Green) for sodium channel blocking activity in recombinant Nav1.7/HEK293 cells
Format: cell-based

human Nav1.7, sequence (Q15858 with tags, fused parts or gaps limits assumed): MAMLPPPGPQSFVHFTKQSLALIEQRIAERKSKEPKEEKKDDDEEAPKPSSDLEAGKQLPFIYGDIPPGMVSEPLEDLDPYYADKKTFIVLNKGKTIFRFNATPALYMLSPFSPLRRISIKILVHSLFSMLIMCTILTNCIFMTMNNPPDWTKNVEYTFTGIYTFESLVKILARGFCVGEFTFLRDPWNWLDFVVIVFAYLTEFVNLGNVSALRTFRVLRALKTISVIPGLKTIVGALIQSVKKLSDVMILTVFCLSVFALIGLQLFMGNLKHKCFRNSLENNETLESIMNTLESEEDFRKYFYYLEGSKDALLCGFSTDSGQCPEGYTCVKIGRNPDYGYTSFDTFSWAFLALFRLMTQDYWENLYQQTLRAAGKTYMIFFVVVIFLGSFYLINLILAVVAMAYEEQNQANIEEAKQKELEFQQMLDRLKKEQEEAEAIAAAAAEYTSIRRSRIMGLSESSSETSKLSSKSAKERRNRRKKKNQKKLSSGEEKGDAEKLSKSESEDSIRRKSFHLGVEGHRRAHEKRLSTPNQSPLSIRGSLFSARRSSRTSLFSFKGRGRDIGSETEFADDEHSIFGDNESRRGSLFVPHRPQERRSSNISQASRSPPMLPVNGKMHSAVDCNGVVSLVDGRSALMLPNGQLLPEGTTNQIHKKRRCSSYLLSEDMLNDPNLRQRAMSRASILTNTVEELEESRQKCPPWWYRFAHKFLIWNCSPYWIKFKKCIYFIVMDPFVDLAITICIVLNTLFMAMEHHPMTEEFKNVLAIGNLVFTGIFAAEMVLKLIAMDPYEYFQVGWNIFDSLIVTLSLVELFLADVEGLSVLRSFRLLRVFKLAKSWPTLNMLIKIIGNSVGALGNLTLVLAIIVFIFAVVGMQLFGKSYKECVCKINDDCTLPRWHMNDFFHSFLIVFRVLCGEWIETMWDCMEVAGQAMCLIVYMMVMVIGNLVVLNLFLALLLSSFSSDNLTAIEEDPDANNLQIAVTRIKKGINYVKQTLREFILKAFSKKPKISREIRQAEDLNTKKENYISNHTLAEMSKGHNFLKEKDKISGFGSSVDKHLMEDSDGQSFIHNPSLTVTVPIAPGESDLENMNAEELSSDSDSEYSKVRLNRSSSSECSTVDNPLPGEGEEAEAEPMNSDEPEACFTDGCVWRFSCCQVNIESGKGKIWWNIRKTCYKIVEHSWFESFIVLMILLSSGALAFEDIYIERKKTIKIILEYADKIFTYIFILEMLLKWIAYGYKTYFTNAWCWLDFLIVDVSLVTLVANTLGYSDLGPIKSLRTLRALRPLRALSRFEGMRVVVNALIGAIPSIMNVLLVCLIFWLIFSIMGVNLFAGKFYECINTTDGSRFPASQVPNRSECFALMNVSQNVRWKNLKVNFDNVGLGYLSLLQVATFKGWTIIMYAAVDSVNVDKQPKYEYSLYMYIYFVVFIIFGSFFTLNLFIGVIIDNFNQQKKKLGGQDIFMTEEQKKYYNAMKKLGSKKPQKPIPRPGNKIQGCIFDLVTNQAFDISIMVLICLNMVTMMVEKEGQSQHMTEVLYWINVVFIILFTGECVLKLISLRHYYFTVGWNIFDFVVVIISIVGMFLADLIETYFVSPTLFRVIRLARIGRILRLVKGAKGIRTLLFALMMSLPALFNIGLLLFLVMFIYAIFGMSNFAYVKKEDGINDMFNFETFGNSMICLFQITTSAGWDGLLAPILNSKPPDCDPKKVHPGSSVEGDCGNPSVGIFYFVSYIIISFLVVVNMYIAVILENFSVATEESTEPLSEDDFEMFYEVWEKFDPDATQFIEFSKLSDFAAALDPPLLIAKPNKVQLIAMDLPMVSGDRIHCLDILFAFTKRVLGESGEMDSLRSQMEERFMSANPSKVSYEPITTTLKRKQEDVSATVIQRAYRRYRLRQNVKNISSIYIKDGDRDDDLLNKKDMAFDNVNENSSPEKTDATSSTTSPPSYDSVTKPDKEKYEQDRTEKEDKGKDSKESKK

**Q.** How did the IC50 turn out when `N#Cc1nc(N[C@H]2CCNC2=O)nc(-c2ccc(Oc3ccc(OC(F)(F)F)cc3)cc2)n1` [Compound 1, (S)-4-((2-oxopyrrolidin-3-yl)amino)-6-(4-(4-(trifluoromethoxy)phenoxy)phenyl)-1,3,5-triazine-2-carbonitrile] was run?
**A.** Its IC50 is 2.25 ± 0.37 µM.

**Q.** Which IC50 does the source give for `N#Cc1nc(-c2ccc(Oc3ccc(C(F)(F)F)cn3)cc2)nc(N2CCOCC2)n1` [Compound 8, 4-morpholino-6-(4-((5-(trifluoromethyl)pyridin-2-yl)oxy)phenyl)-1,3,5-triazine-2-carbonitrile] here?
**A.** The IC50 was 8.09 ± 0.959 µM.

**Q.** With `NC(=O)c1nc(-c2ccc(Oc3ccc(C(F)(F)F)cn3)cc2)nc(N2CCOCC2)n1` [Compound 10, 4-morpholino-6-(4-((5-(trifluoromethyl)pyridin-2-yl)oxy)phenyl)-1,3,5-triazine-2-carboxamide] as the compound, how does the IC50 read?
**A.** Its IC50 is 0.353 ± 0.1 µM.

**Q.** With `CCN(c1nc(C(N)=O)nc(-c2ccc(Oc3ccc(OC(F)(F)F)cc3)cc2)n1)C(C)C` [Compound 4, 4-(ethyl(isopropyl)amino)-6-(4-(4-(trifluoromethoxy)phenoxy)phenyl)-1,3,5-triazine-2-carboxamide] as the compound, how does the IC50 read?
**A.** Its IC50 is greater than 20 µM.

**Q.** For `NC(=O)c1nc(N[C@H]2CCNC2=O)nc(-c2ccc(Oc3ccc(OC(F)(F)F)cc3)cc2)n1` [Compound 2, (S)-4-((2-oxopyrrolidin-3-yl)amino)-6-(4-(4-(trifluoromethoxy)phenoxy)phenyl)-1,3,5-triazine-2-carboxamide], which IC50 is on record?
**A.** Its IC50 is 0.326 ± 0.116 µM.

**Q.** For `NC(=O)c1nc(-c2ccc(Oc3ccc(OC(F)(F)F)cc3)cc2)nc(N2CCOCC2)n1` [Compound 9, 4-morpholino-6-(4-(4-(trifluoromethoxy)phenoxy)phenyl)-1,3,5-triazine-2-carboxamide], which IC50 is on record?
**A.** Its IC50 is 0.596 ± 0.102 µM.

**Q.** With `CCN(c1nc(C(N)=O)nc(-c2ccc(Oc3ccc(C(F)(F)F)cn3)cc2)n1)C(C)C` [Compound 5, 4-(ethyl(isopropyl)amino)-6-(4-((5-(trifluoromethyl)pyridin-2-yl)oxy)phenyl)-1,3,5-triazine-2-carboxamide] as the compound, how does the IC50 read?
**A.** The IC50 was 0.645 ± 0.14 µM.

**Q.** For `NC(=O)c1nc(NCCO)nc(-c2ccc(Oc3ccc(C(F)(F)F)cn3)cc2)n1` [Compound 12, 4-((2-hydroxyethyl)amino)-6-(4-((5-(trifluoromethyl)pyridin-2-yl)oxy)phenyl)-1,3,5-triazine-2-carboxamide], which IC50 is on record?
**A.** The IC50 was 0.243 ± 0.125 µM.

**Q.** How did the IC50 turn out when `NC(=O)c1nc(N)nc(N2CC(Oc3ccc(C(F)(F)F)cn3)C2)n1` [Compound 11, 4-amino-6-(3-((5-(trifluoromethyl)pyridin-2-yl)oxy)azetidin-1-yl)-1,3,5-triazine-2-carboxamide] was run?
**A.** Its IC50 is greater than 20 µM.

**Q.** With `NC(=O)c1nc(N)nc(-c2ccc(Oc3ccc(C(F)(F)F)cn3)cc2)n1` [Compound 13, 4-amino-6-(4-((5-(trifluoromethyl)pyridin-2-yl)oxy)phenyl)-1,3,5-triazine-2-carboxamide] as the compound, how does the IC50 read?
**A.** Its IC50 is greater than 20 µM.

**Q.** How did the IC50 turn out when `NC(=O)c1nc(N[C@H]2CCNC2=O)nc(N2CC(Oc3ccc(C(F)(F)F)cn3)C2)n1` [Compound 14, (S)-4-((2-oxopyrrolidin-3-yl)amino)-6-(3-((5-(trifluoromethyl)pyridin-2-yl)oxy)azetidin-1-yl)-1,3,5-triazine-2-carboxamide] was run?
**A.** Its IC50 is greater than 20 µM.
